Test results taken from patent publication US20030138380A1, “Gas emulsions stabilized with fluorinated ethers having low Ostwald coefficients” (priority 1995, published 2003).

Legend:
[1] = 25 degrees C.; literature, or if not there calculated with the model of Lawson et al.; cited from earlier work
pig heart = assay: Second harmonic ultrasound imaging of the heart, pig model; assay type: in vivo, pigs; conditions: Powder D with osmotic agent-N2 mixture, 0.5 mL infused over 1 min via jugular vein
Method: After reconstituting the powder with 10 ml of water, the bubbles were formed.
Anesthetized pigs (14-16 kg) were fitted with indwelling catheters in the femoral artery and femoral and jugular veins for hemodynamic monitoring and contrast agent administration. Parasternal short-axis cardiac images at the level of the papillary muscles were obtained using an HP Sonos 2500 Ultrasound machine. Images were acquired in the Second Harmonic mode with a wide bandwidth linear phased array probe emitting at 2 MHz and receiving at 4 MHz. Imaging was intermittent (gated), triggered at end-diastole of every cardiac cycle. 0.5 mnL of reconstituted contrast agent was diluted with 0.5 mL sterile saline and infused over 1 min via the jugular vein.
FIGS. 3, 4, and 5 show a time course of ultrasound images of the heart following intravenous administration of contrast agents. […] FIGS. 4 and 5 show ultrasound images of the same hearts one minute and six minutes after infusion with the respective contrast agents. FIGS. 3a, 4a, and 5a show the ultrasound images of the heart following intravenous administration of contrast agent stabilized by perfluoropolyether. FIGS. 3b, 4b, and 5b show the ultrasound images of the heart following intravenous administration of contrast agent stabilized by perfluorohexane.

rabbit carotid artery = assay: Pulsed Doppler Signal Enhancement Rabbit Model (carotid artery); assay type: in vivo; conditions: Powder D, osmotic agent in mixture with nitrogen, injected dose 0.2 ml (ca. 1 mg dry powder per kg)
Method: (§1) One ml of the resulting microbubble suspension was injected intravenously into an approximately 3 kg rabbit instrumented to monitor the Doppler ultrasound signal of its carotid artery. A 10 MHz flow cuff (Triton Technology Inc., San Diego, Calif.; model ES-10-20) connected to a System 6 Doppler flow module (Triton Technology Inc.) fed the RF Doppler signal to a LeCroy 9410 oscilloscope (LeCroy, Chestnut Ridge, N.Y.). The root mean square (RMS) voltage of the signal computed by the oscilloscope was transferred to a computer and the resultant curve fitted to obtain peak echogenic signal intensity and half-life of the microbubbles in blood. Signals before contrast were less than 0.1 volts RMS.
as §1, with “half-ife” for “half-life”
as §1, with “RF doppler” for “RF Doppler”, “obtain Peak” for “obtain peak”
100 mg samples of the spray-dried powder were placed in 10-ml vials and gassed by perfluoroether-air mixture repeated evacuation-gassing cycles with the help of a syringe needle equipped with a three-way valve. As the filling gases, perfluorodimethyl ether (85%, Exfluor Research, Austin, Tex.), perfluoro(methylethyl ether) (80%, Exfluor Research, Austin, Tex.), perfluoro(diethyl ether) (90%, Strem Chemicals, Newburyport, Mass.), n-perfluoropropane and n-perfluorobutane (97%, PCR Incorporated) were used. […] Their echogenic properties in vivo were evaluated using a Pulsed Doppler Signal Enhancement Rabbit Model as described in Example III.
After reconstituting the powder with 10 ml of water, the bubbles were formed. Their echogenic properties in vivo were evaluated using a Pulsed Doppler Signal Enhancement Rabbit Model, as described in Example III, with the difference that the injected dose was reduced to 0.2 ml (ca. 1 mg of dry powder per kg of rabbit). FIGS. 2a, 2b, and 2c compare the decay of ultrasound signal over time for different filling gases at close partial pressures. The data are arranged in pairs so that microbubble preparations comprising perfluoroethers (thick lines) are compared directly with their perfluorocarbon analogues (thin lines). From the graphs it is evident that perfluoroether-filled bubbles have a longer persistence in the bloodstream than their fluorocarbon analogues.

[2] = 25 degrees C.; first four values, as reported by Wilhelm, Battino and Wilcock; cited from earlier work

FC(F)(F)C(F)(F)C(F)(F)OC(F)(F)C(F)(F)C(F)(F)F [Sample C3F7OC3F7, C3F7OC3F7]
PF, sat9 atm (saturated vapor pressure) [1]: 0.30 atm

FC(F)(F)OC(F)(F)OC(F)(F)OC(F)(F)OC(F)(F)F [CF3—(OCF2)3OCF3]
contrast of the heart one minute after injection (pig heart): Substantial contrast of the heart
tissue contrast of the heart at six minutes (pig heart): still a great deal of tissue contrast
Time of decay of the Doppler signal to baseline, s, at ρF = 0.13 ± 0.03 atm (rabbit carotid artery): 1200 s

FC(F)(F)F [CF4]
L × 10^6 (Ostwald coefficient) [2]: 5172
PF, sat9 atm (saturated vapor pressure) [1]: 159 atm

FC(F)(F)C(F)(F)F [Sample C2F6, C2F6]
PF, sat9 atm (saturated vapor pressure) [1]: 26.2 atm

FC(F)(F)OC(F)(F)C(F)(F)OC(F)(F)C(F)(F)OC(F)(F)F [CF3O(CF2CF2O)2CF3, perfluorodiglyme]
PF, sat9 atm (saturated vapor pressure) [1]: 0.20 atm
Time of decay of the Doppler signal to baseline, s, at ρF = 0.13 ± 0.03 atm (rabbit carotid artery): >1800 s

nitrogen [Sample N2]
L × 10^6 (Ostwald coefficient) [2]: 15880

FC(F)(F)C(F)(F)C(F)(F)C(F)(F)F [n-C4F10, perfluorobutane]
PF, sat9 atm (saturated vapor pressure) [1]: 2.2 atm
Time of decay of the Doppler signal to baseline, s, at ρF = 0.13 ± 0.03 atm (rabbit carotid artery): 300 s

FC(F)(F)C(F)(F)C(F)(F)C(F)(F)C(F)(F)F [n-C5F12, perfluoropentane]
PF, sat9 atm (saturated vapor pressure) [1]: 0.84 atm
Time of decay of the Doppler signal to baseline, s, at ρF = 0.13 ± 0.03 atm (rabbit carotid artery): 400 s

FS(F)(F)(F)(F)F [SF6]
L × 10^6 (Ostwald coefficient) [2]: 5950
PF, sat9 atm (saturated vapor pressure) [1]: 23.5 atm

O=O [Sample O2, oxygen]
L × 10^6 (Ostwald coefficient) [2]: 31110

FC(F)(F)C(F)(F)C(F)(F)F [n-C3F8, n-perfluoropropane]
PF, sat9 atm (saturated vapor pressure) [1]: 6.8 atm

FC(F)(F)OC(F)(F)F [CF3OCF3, perfluorodimethylether]
PF, sat9 atm (saturated vapor pressure) [1]: 10.9 atm

FC(F)(F)C(F)(F)OC(F)(F)C(F)(F)F [Sample C2F5OC2F5, perfluorodiethylether]
PF, sat9 atm (saturated vapor pressure) [1]: 1.9 atm

FC(F)(F)OC(F)(F)C(F)(F)OC(F)(F)C(F)(F)F [CF3OC2F4OC2F5]
PF, sat9 atm (saturated vapor pressure) [1]: 0.55 atm

FC(F)(F)C(F)(F)C(F)(F)C(F)(F)C(F)(F)C(F)(F)F [n-C6F14, perfluorohexane]
contrast of the heart one minute after injection (pig heart): Substantial contrast of the heart
tissue contrast of the heart at six minutes (pig heart): declined markedly
PF, sat9 atm (saturated vapor pressure) [1]: 0.27 atm
Time of decay of the Doppler signal to baseline, s, at ρF = 0.13 ± 0.03 atm (rabbit carotid artery): 600 s

FC(F)(F)OC(F)(F)C(F)(F)OC(F)(F)F [CF3OC2F4OCF3, perfluoromonoglyme]
PF, sat9 atm (saturated vapor pressure) [1]: 1.16 atm
Time of decay of the Doppler signal to baseline, s, at ρF = 0.13 ± 0.03 atm (rabbit carotid artery): 400 s
